# In patent publication US11291659B2, “P38 kinase inhibitors reduce DUX4 and downstream gene expression for the treatment of FSHD” (Fulcrum Therapeutics, Inc., priority 2017, dated 2022):
# pIC50: −log10 of the molar value.
# How the values were obtained:
# [1] = test system: MBD3L2 mRNA (DUX4 downstream gene); assay: MBD3L2 mRNA expression by qPCR in FSHD myotubes; type: cell-based, Human; settings: for pIC50: Homo sapiens, Myotube, read-out: IC50, reduction of MBD3L2 mRNA expression, FSHD myotubes, realtime PCR
# Procedure: Cell Plating: Performed three days prior to treatment, 10000 cells were plated per well on gelatinized 96-well plates, or 100000 cells on gelatinized 6-well plates.
# (§1) For ASO or compound treatments cells were plate into 100 μL of Promocell growth medium containing ASO or compounds at the described concentrations.
# (§2) On day 0, change to differentiation media. Remove plates from the incubator and aspirate the growth medium, Wash once with PBS, 100 μL for 96-wells and 1 mL for a 6-well plate, Add 100 μL or 2 mL of differentiation medium per well, 96- or 6-well respectively. Add antisense oligonucleotides or drug at the desire concentration and put back in the incubator. Fusion should start within day 1-2. Incubate for 3-4 days.
# (§3) Cells were removed from the incubator and media aspirated. Quickly lysed following one of the following protocols: For lysis in 96-well plates direct lysis and one-step RT-Preamp qPCR protocol described below. For each 96-well prepare a mix containing: 19.5 μL Roche Realtime Ready lysis buffer, 0.25 μL RNAse inhibitor, 0.25 μL DNAseI (from Thermo not the included one in the kit). 20 μL of the mix was added to each well, mix 5 times and incubated 5 minutes at RT or alternatively shaken vigorously for 15 minutes. Lysis was observed under the microscope. Samples were frozen −80° C. at least for 15 minutes,
# (§4) For qPCR, dilute 1:10 and use 2 μL for a 10 μL 1-step RT-qPCR reaction. For detection of GAPDH, RPLP0, TBP, MYOG, FRG1, MYH3, ACTN2, etc.). Per 10 μL reaction: RNA (1:10 dilution lysate) 2 μL, Fast Advanced Taqman Master Mix (2×) 5 μL, RT enzyme mix (40×) 0.25 μL, Taqman probe set (20×) 0.5 μL, H2O 2.25 μL. The following reaction protocol was run on the QuantStudio 7: 48° C. for 15 min, 50° C. for 2 min, 95° C. for 30 sec, 40×, 95° C. for 5 sec, 60° C. for 30 sec, then plates were read as specified by the manufacturer (Thermo). For 1-step RT-Preamplification used for detection of DUX4 downstream genes, i.e. MBD3L2, ZSCAN4, LEUTX, TRIM43, KHDC1L. POL2RA-VIC was used as Endogenous control). Per 10 μL reaction: RNA (1:10 dilution lysate) 2.25 μL, Taqman Pre-Amp Master Mix (2×) 5 μL, RT enzyme mix (40×) 0.25 μL, Taqman probe set (0.2×)*2.5 μL, * Pooling the TaqMan Assays: equal volumes of each 20× TaqMan® Gene Expression Assay, up to 100 assays were combined. For example, to pool 50 TaqMan assays, 10 μL of each assay were combined in a microcentrifuge tube. The pooled TaqMan assays were diluted using 1×TE buffer so that each assay is at a final concentration of 0.2×. For the above example, add 500 μL of 1×TE buffer to the pooled TaqMan assays for a total final volume of 1 mL. The QuantStudio7 protocol was used 48° C. 15 min, 95° C. 10 min, 10 cycles: 95° C. 15 sec, 60° C. 4 min, 4° C. infinite. Samples were then diluted to 50 μL and continue with the qPCR step. Per 10 μL reaction: Preamp dilution 2 μL, Fast Advanced Taqman Master Mix (2×) 5 μL, Taqman probe set (20×) 0.5 μL, H2O 2.5 μL. When multiplexing the volume was adjusted to 10 μL total). The following program was run on the QuantStudio7: 50° C. for 2 min, 95° C. for 30 sec, 40×, 95° C. for 5 sec, 60° C. for 30 sec, plates were read as per the manufacturers specifications (Thermo).
# (§5) After treatment, the control and treated cells were processed for realtime PCR quantification of MBD3L2 mRNA (DUX4 downstream gene) and myogenin (MYOG) mRNA (control) expression.
# [2] = test system: FSHD myotubes; assay: Myotube formation / fusion, MHC and DAPI staining; type: cell-based, Human; settings: immortalized FSHD myotubes; 1, 0.33, 0.11, 0.037 μM; 4 days
# Procedure: as §2
# Briefly, cells were fixed in 4% paraformaldehyde and […] for 10 min at room temperature. Cells were permeabilized with PBST (1×PBS solution with 0.1% Triton X-100) before blocking with 10% Normal Donkey Serum or 3% BSA (NDS) in PBST. […] DUX4 was detected by immunocytochemistry using the E5-5 antibody in differentiated FSHD myotubes. Activated Caspase-3 was detected cell signaling antibody that we're using for ICC, Asp175 (https://www.cellsignal.com/products/primary-antibodies/cleaved-caspase-3-asp175-antibody/9661).
# Immortalized FHSD myotubes were differentiated and treated with DMSO vehicle control or FTX-1821 at concentrations of 1 μM, 0.33 μM, 0.11 μM, or 0.037 μM. […] The nuclei in myotubes were quantified according to MHC staining (FIG. 8B).
# [3] = test system: DUX4 target genes; assay: RNA-seq profiling of FSHD myotubes; type: cell-based, Human
# From the text: The 40 bp single-end reads from Illumina had good quality by checking with FastQC (http://www.bioinformatics.babraham.ac.uk/projects/fastqc/). Reads were mapped to hg19 using TopHat v2.1.1. The gene model for TopHat was created by merging known Gene in gtf format with kgXref table. Both known Gene and kgXref were downloaded from UCSC table browser in hg19 assembly. The read counts were obtained using feature Counts function from Subread package with strandness option as −r 2. Reads were normalized with DESeq2. […] Consequently, Combat was used for reducing this batch effect. Calculated standard RPKM expression values. Total gene signature is very small and defined at standard statistical cutoffs: 86/19,799 mRNA genes. DUX4-regulated gene signature is majority of total signature: 77/86 mRNA genes=90%. Non-DUX4 regulated genes is minority of total signature with moderate fold changes: 9/86 mRNA genes=10%; 2-2.7×log FC.
# In addition, gene expression was also determined in wild type myotubes treated with DMSO. Three replicates for each condition were analyzed by RNA-seq and genes were clustered by the direction and intensity of change.
# [4] = test system: phospho MK2 to total MK2 ratio; assay: p38 system target engagement in rat trapezius muscle; type: in vivo, Sprague-Dawley rats
# Procedure: Pharmacodynamic analysis of p38 system target engagement in muscle tissue was performed by measuring the change in phosphor MAP kinase-activated protein kinase 2 (MK2) to total MK2 ratio before and after drug treatment.
# [5] = test system: DUX4 dependent target genes; assay: Prediction for FSHD patient muscle from rat muscle concentrations and in vitro myotube data; design: species or system Human; settings: at Cmax, FSHD patient muscle biopsies
# Procedure: P38 system target engagement persisted for at least 12 hours following the single dose of FTX-1821 (FIG. 15). P38 system target engagement in trapezius muscle was maximal when plasma and muscle concentrations of FTX-1821 were greater than 20 ng/mL or ng/g and declined at timepoints when exposures decreased. The muscle concentrations of FTX-1821 achieved in the rat study are predicted to result in >70% reduction at Cmax in DUX4 dependent target genes in FSHD patient muscle biopsies based upon in vitro data in FSHD myotubes (above).
# [6] = test system: myogenin (MYOG) mRNA; assay: Myogenin (MYOG) mRNA expression by qPCR in FSHD myotubes (control gene); type: cell-based, Human
# Procedure: as §1, §2, §3
# as §4, with “For the above example, add 500 μL of 1×TE buffer to the pooled TaqMan assays for a total final volume of 1 mL. The QuantStudio7 protocol was used 48° C. 15 min, 95° C. 10 min, 10 cycles: 95° C. 15 sec, 60° C. 4 min, 4° C. infinite. Samples were then diluted to 50 μL and continue with the qPCR step. Per 10 μL reaction: Preamp dilution 2 μL, Fast Advanced Taqman Master Mix (2×) 5 μL, Taqman probe set (20×) 0.5 μL, H2O 2.5 μL. When multiplexing the volume was adjusted to 10 μL total).” left out
# as §5
# [7] = test system: DUX4 and downstream genes ZSCAN4, TRIM43, MBD3L2, LEUTX, KHDC1L; assay: DUX4-regulated downstream genes by real time PCR after DUX4 ASO; type: cell-based, Human; settings: FSHD myotubes
# Procedure: as §1
# Wild type myotubes were treated with DMSO control vehicle, and mature patient-derived FSHD myotubes that express DUX4 protein were treated with DMSO vehicle control or 1 μM of a DUX4 sequence-directed antisense oligonucleotide (ASO; FTX-2) purchased from Exiqon. After treatment, the myotubes were lysed in 19.5 μL of Roche Real Time Ready Lysis Buffer, 0.25 μL of DNAse1 (Ambion, AM2222), 0.25 μL of Protector RNase Inhibitor (Roche, 3335402001), and the RNA was collected in an RNeasy Micro Kit Master Mix. Expression levels of DUX4-regulated downstream genes (ZSCAN4, TRIM43, MBD3L2, LEUTX, and KHDC1L) was determined by real time PCR (ThermoFisher Scientific, 4484262), ZSCAN4 Taqman Assay (ThermoFisher Scientific, Hs00537549_m1, FAM-MGB), MYOG Taqman Assay (ThermoFisher Scientific, Hs01072232_m1, JUN-QSY), RPLP0 Taqman Assay (ThermoFisher Scientific, Hs99999902_m1), and/or LEUTX Taqman Assay (ThermoFisher Scientific, Hs00418470_m1). Ct values were extracted from QuantStudio Realtime PCR software, and Genedata was used to calculate relative levels of expression using POLR2A as a housekeeping gene.
# [8] = rat trapezius muscle, single oral dose 0.3 mg/kg
compound,measurement,setting,value
Cc1c(F)cc(C(=O)NC2CC2)cc1-c1ccc(C(=O)NCC(C)(C)C)cn1 [FTX-1821],MBD3L2 mRNA expression,"[1]; FSHD1 and FSHD2 primary patient myoblast lines, 1 μM",reduction of MBD3L2
same,MBD3L2 expression levels,"[1]; myotubes of four FSHD patient lines FTCE-016, -020, -197, -196, 1 μM",reduced in all of the FSHD lines
same,myotube formation or fusion,[2],no changes
same,Non-DUX4-regulated genes in total signature,"[3]; 1 μM vs DMSO, RNA-seq",9/86
same,fold changes of non-DUX4-regulated genes,"[3]; 1 μM vs DMSO, RNA-seq",2-2.7 × log FC
same,expression of differentially expressed (DUX4 pathway) genes,"[3]; 1 μM, compared with wild type cells",normalized
same,plasma concentration at which inhibition of the p38 system in muscle was maximal,[4]; rat,greater than 20 ng/mL
same,plasma and muscle concentrations at which target engagement was maximal,[4]; rat trapezius muscle,greater than 20 ng/mL or ng/g
same,phospho MK2 to total MK2 ratio,[4]; [8],significantly decreased
same,time to decrease of phospho MK2 to total MK2 ratio,[4]; [8],≤ 1 h
same,persistence of p38 system target engagement,"[4]; rat, single oral dose 0.3 mg/kg",at least 12 hours
same,predicted reduction in DUX4 dependent target genes,[5],> 70%
COc1nccc(-c2c(-c3ccc(F)cc3)ncn2C2CCC(O)CC2)n1 (stereo not shown) [SB239063],MYOG mRNA expression,[6],no impact
"CCc1nc(-c2cccc(C)c2)c(-c2ccnc(NC(=O)c3ccccc3)c2)s1 [TAK-715, N-(4-(2-ethyl-4-(3-methylphenyl)-1,3-thiazol-5-yl]-2-pyridyl]benzamide]",pIC50,[1],> 8.00
same,MYOG mRNA expression,[6],no impact
"NC(=O)c1ccc(N(C(N)=O)c2c(F)cccc2F)nc1-c1ccc(F)cc1F [VX-702, 2-(2,4-difluorophenyl)-6-(1-(2,6-difluorophenyl)ureido)nicotinamide]",pIC50,[1],> 8.00
same,MYOG mRNA expression,[6],no impact
"FTX-2: DUX4 sequence-directed antisense oligonucleotide purchased from Exiqon, CAGCGTCGGAAGGTGG (SEQ ID NO: 1) (listed as DNA, chemistry not given here)","expression of DUX4 and target genes ZSCAN4, TRIM43, MBD3L2, LEUTX, KHDC1L",[7]; 1 μM vs DMSO,reduced amounts
same,DUX4 and downstream gene MBD3L2 expression,[7]; different dilutions,dose dependent reduction
